Reference: patent publication US20250222018A1, “METHODS OF USING AVERMECTIN COMPOSITIONS FOR THE TREATMENT OF PAIN AND DOSING REGIMENS” (L4 BIO LLC, priority 2022, published 2025)

Tested on: pentylenetetrazol (PTZ)-induced ictal brain activity
Assay: Modulation of pentylenetetrazol (PTZ)-induced seizures, BOLD fMRI in rats
Assay type: in vivo, male Wistar rats
Details: for PTZ-induced brain activity, positive control compounds: Alprazolam 3 mg/kg i.p., 1 dose, no dose printed for Diazepam
Protocol: Functional MRI (fMRI) was performed using a high-field preclinical MRI system in anesthetized male Wistar rats in order to determine the modulation of pentylenetetrazol (PTZ)-induced ictal brain activity by chronic treatment with test compound (TC). […] Vehicle and 3 mg/kg Alprazolam served as controls (see, Table 11) Seizures were induced with PTZ in each experimental group. A schematic of the study design can be seen in FIG. 6. Various physiological parameters were also measured throughout the experiment including body weight, CO2 levels, blood pH, and heart rate. […] Vehicle and 3 mg/kg Alprazolam served as controls (see, Table 12).

Row | Compound | PTZ-induced brain activity, positive control compounds | brain regions with statistical significance of BOLD fMRI AUC, Vehicle vs. Alprazolam (FIG. 7A, Alprazolam 3 mg/kg+PTZ, two-way ANOVA)
1 | CN1C(=O)CN=C(c2ccccc2)c2cc(Cl)ccc21 [Diazepam] | effectively cancelled PTZ-induced brain activity with high statistical significance in all tested brain regions | 
2 | Cc1nnc2n1-c1ccc(Cl)cc1C(c1ccccc1)=NC2 [Alprazolam] | effectively cancelled PTZ-induced brain activity with high statistical significance in all tested brain regions | in all
